Common to all, as to format: cell-based
Experiment [1] addresses T1, 5-lipoxygenase (Human Leukocyte/PMNL 5-LPO) (Homo sapiens, UniProt P09917).
T1 construct: Human neutrophils and platelets were obtained from the blood of normal volunteers; endogenous in cells; host or cells: human blood leukocytes (neutrophils) of normal volunteers, with 0.1 to 0.5 platelets per leukocyte
T1 sequence (P09917 1-674): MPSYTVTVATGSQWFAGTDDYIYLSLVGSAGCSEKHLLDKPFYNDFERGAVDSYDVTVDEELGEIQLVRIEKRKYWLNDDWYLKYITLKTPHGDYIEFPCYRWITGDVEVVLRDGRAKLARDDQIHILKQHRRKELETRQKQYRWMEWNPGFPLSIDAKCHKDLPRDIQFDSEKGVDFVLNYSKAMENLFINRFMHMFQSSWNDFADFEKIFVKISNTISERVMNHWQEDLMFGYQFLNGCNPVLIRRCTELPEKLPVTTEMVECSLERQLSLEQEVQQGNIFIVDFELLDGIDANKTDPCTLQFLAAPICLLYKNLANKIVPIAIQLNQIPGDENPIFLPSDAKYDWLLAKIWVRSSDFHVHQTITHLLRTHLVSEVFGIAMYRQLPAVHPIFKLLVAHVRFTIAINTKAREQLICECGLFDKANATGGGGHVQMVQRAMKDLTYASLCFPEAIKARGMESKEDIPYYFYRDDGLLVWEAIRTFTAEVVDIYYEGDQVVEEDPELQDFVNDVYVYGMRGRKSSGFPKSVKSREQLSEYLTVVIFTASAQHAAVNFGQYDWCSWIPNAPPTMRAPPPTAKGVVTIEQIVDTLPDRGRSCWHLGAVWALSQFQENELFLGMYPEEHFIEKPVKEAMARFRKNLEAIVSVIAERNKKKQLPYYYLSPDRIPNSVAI
The experiment is described as follows: Inhibition of 5-lipoxygenase (5-HETE formation) in human neutrophil/platelet system. To be noted: for % Inhibition at 100 μm: 4-alkoxyphenyl compounds. The text has this:
This test is a measure of the inhibition of the synthesis of lipoxygenase products generated by human neutrophils and platelets. The protocol is similar to that described in the article "Comparative Effects of Indomethacin, Acetylenic Acids, 15-HETE, NDGA and BW755C on the Metabolism of Arachidonic Acid in Human Leukocytes and Platelets", H. Solari, P. Braquet and P. Borgeat, Prost. Leuk. Med. 13, pp. 53-60, 1984.
Human neutrophils and platelets were obtained from the blood of normal volunteers. The blood was collected into tubes containing EDTA as an anticoagulant. The blood was centrifuged at 250×g for 15 minutes and the platelet rich plasma was removed. The cell fraction was mixed with an equal volume of 0.9% saline containing 10 mM dextrose and resuspended in Dulbecco's phosphate buffered saline (PBS) without Mg^++ and Ca^++ and was counted. The cell suspension was adjusted to give a leukocyte count of 2-3×10^7 cells/ml.
Test compounds were dissolved in ethanol and added to polypropylene tubes. To control tubes (drug-free) only ethanol was added. The ethanol was evaporated to dryness under a stream of argon and then 0.1 ml of the cell suspension (2-3×10^6 cells) was added. This mixture was pre-incubated for 5 minutes at 37° and then the reaction was initiated by addition of ^3 H-arachidonic acid, calcium ionophore (A23187), and calcium ion. The final concentration of each component was: arachidonic acid, 10 uM; A23187, […]; calcium ion, […]. After 5 minutes the incubations were stopped by addition of an equal volume of methanol. The tubes were spun at 11,000 g for 2 minutes to pellet the precipitated protein. The supernatant was analyzed by HPLC for 5-HETE. The formation of this product is indicative of 5-lipoxygenase activity. Test drugs were evaluated for their ability to inhibit 5-HETE formation. Percent inhibition of varying concentrations of test drugs was determined in duplicate by comparing the peak quantitation in the presence and absence (control) of drug. […] The IC50 values were calculated from log-dose response curves of pooled data from at least two experiments by linear regression analysis.
The activity was tested by the same method as in the previous example.
The enzyme inhibitory activity of these compounds was tested by the same method.

Experiment [2] deals with T2, Human Platelet CO (Homo sapiens, UniProt P23219).
T2 construct: Human neutrophils and platelets were obtained from the blood of normal volunteers; endogenous in cells; host or cells: human platelets from blood of normal volunteers
T2 sequence (P23219 24-599): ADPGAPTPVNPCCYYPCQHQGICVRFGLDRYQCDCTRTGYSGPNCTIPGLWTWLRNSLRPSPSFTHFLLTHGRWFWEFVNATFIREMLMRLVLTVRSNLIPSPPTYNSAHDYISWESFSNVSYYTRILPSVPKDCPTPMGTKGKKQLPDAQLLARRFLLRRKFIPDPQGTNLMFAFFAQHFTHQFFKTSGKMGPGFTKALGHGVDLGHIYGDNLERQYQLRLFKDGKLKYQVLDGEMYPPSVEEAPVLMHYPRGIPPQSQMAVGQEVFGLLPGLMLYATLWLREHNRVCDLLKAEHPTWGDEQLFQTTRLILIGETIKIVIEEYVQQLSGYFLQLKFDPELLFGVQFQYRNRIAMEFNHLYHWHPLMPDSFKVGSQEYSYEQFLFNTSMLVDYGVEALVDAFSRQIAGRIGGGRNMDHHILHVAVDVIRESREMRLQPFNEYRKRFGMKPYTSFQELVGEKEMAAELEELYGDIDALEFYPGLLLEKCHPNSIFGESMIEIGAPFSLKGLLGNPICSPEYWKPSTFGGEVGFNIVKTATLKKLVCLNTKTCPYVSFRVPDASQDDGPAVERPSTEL
The experiment is described as follows: Inhibition of CO, human platelet. To be noted: for % I Human Platelet CO / inhibition at 100 µM: @ 100 μM; for IC50: 95% confidence interval given for some; for inhibition at 100 µM: read-out: % I Human Platelet CO.

Experiment [3] deals with T3, Human Platelet 12-LPO (Homo sapiens, UniProt P18054).
T3 construct: Human neutrophils and platelets were obtained from the blood of normal volunteers; endogenous in cells; host or cells: human platelets from blood of normal volunteers
T3 sequence (P18054 1-663): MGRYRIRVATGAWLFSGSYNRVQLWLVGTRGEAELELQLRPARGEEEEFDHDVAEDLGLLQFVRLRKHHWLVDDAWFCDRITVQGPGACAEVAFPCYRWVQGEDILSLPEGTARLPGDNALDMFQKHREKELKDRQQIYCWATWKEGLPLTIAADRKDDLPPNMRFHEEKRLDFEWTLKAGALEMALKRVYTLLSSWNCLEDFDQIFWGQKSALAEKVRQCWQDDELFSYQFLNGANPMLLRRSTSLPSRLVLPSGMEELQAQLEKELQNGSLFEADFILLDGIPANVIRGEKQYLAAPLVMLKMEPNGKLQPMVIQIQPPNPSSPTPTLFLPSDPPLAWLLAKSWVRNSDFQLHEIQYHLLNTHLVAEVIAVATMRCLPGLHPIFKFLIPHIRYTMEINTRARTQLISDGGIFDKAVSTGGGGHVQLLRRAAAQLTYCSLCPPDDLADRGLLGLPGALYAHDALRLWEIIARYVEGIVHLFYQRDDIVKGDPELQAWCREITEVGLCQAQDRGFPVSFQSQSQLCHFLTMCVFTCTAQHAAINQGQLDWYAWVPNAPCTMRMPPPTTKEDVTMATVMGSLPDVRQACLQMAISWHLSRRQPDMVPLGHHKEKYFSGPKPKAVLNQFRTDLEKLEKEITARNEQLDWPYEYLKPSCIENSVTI
Kind of experiment: Inhibition of 12-LPO, human platelet. To be noted: for inhibition at 100 µM: read-out: % I Human Platelet 12-LPO; for IC50: 95% confidence interval.

The mark [4] stands for this setting: FIG. 1 table, 95% confidence interval, read-out: IC50 Human PMNL 5-LPO.
Where [5] appears, read: text comparison with prior-art compound, read-out: IC50 in the 5-lipoxygenase inhibition test.
The mark [6] stands for this setting: ring-substituted 9-phenylnonanohydroxamic acids, read-out: IC50 (5-lipoxygenase).
Setting [7] is: PMNL, read-out: % I Human PMNL 5-LPO.
Setting [8] is: Table I, R=H, phenylalkyl hydroxamic acids, read-out: IC50 5-LPO (Inhibition of Human Leukocyte 5-LPO).

The values that follow come from patent US4861798A, “Lipoxygenase inhibitory compounds” (Bristol-Myers Company, priority 1987, dated 1989).

Like-named read-outs stand apart in the source and are kept apart here.

On to `CC(C)N(O)C(=O)CCCCCCCCCCCCCCc1ccccc1` [BMY30229], for which the IC50 in experiment [1] (setting [4]) was determined as 80 µM. Moreover, in experiment [2], the “% I Human Platelet CO” value is “inactive”. Further, in experiment [3], the inhibition at 100 µM was found to be 10%.
Regarding `CN(O)C(=O)CCCCCCCCCCCCCCc1ccccc1` [BMY30228], the IC50 in experiment [1] (setting [4]) amounted to 25.3 µM. For the same compound, the “% I Human Platelet CO” value in experiment [2] was “inactive”. The inhibition at 100 µM in experiment [3] is 17%.
Regarding `CN(O)C(=O)CCCCCCCc1ccccc1` [BMY30208, N-methyl-8-phenyloctanohydroxamic acid], the concentration for half-maximal inhibition (IC50) was 0.1 µM in experiment [1] (setting [4]), 2.9 µM in experiment [2] and 3.6 µM in experiment [3].
As to `O=C(CCCCCc1ccccc1)NO` [reference compound], the IC50 in experiment [1] (setting [5]) was > 100 µM.
Take `Cc1cccc(CCCCCCCCC(=O)NO)c1` [BMY 30182, 9(3-methylphenyl)nonanohydroxamic acid]: the IC50 in experiment [1] (setting [6]) amounted to 6.2 µM.
On to `O=C(CCCc1ccccc1)NO` [BMY30077], for which the inhibition at 100 µM in experiment [1] (setting [7]) stood at 11%. Moreover, the IC50 in experiment [1] (setting [8]) is > 100 µM.
Take `O=C(CCc1ccccc1)NO` [n=2, reference compound]: the IC50 in experiment [1] (setting [8]) is > 100 µM.
For the compound `CCCCCCOc1ccc(CCCCCCCCC(=O)NO)cc1` [BMY 30230, 9(4-Hexyloxyphenyl)nonanohydroxamic acid], the “% Inhibition at 100 μm” value in experiment [1] was found to be 0%.
Consider `CN(O)C(=O)CCCCCCCCCc1ccccc1` [BMY30217], for which the figures for the half-inhibitory concentration (IC50) in experiment [1] (setting [4]), in experiment [2] and in experiment [3] were 0.09 µM, 4.6 µM and 5.5 µM, respectively.
Turning to `CN(O)C(=O)CCCCCCCCc1ccccc1` [BMY30223], the IC50 in experiment [1] (setting [4]) is 0.17 µM; in experiment [2], 2.1 µM; in experiment [3] it was 2.5 µM.
As to `CCCCOc1ccc(CCCCCCCCC(=O)NO)cc1` [BMY 30239, 9(4-Butoxyphenyl)nonanohydroxamic acid], the “% Inhibition at 100 μm” value in experiment [1] stood at 56.0%.
With `O=C(CCCCCCCCCCCCCCc1ccccc1)NO` [BMY30152], in experiment [1] (PMNL, @ 50 μM, read-out: % I Human PMNL 5-LPO), the inhibition at 50 µM was determined as 7.5%. Further, the 50% inhibitory concentration (IC50) in experiment [1] (setting [8]) was > 100 µM.
As for `O=C(CCCCCCCCCCCc1ccccc1)NO` [Compound 2e], the concentration for half-maximal inhibition (IC50) in experiment [1] (setting [8]) turned out to be 10.3 µM.
In the case of `CC(C)N(O)C(=O)CCCCCCCCCc1ccccc1` [BMY30218], the half-maximal inhibitory concentration (IC50) was determined as 0.14 µM in experiment [1] (setting [4]), 7.6 µM in experiment [2] and 26.7 µM in experiment [3].
For `O=C(CCCCCCc1ccccc1)NO` [Compound 2a], in experiment [1] (setting [5]), the IC50 came to 20.9 µM.
Regarding `COc1ccc(CCCCCCCCC(=O)NO)cc1` [BMY 30173, 9(4-Methoxyphenyl)nonanohydroxamic acid], the IC50 in experiment [1] (setting [6]) stood at 2.4 µM.
For the compound `CC(C)N(O)C(=O)CCCCc1ccccc1` [BMY30226], in experiment [1] (setting [4]), the IC50 was found to be 0.9 µM. Besides, the inhibition at 100 µM was 25% in experiment [2] and 59% in experiment [3].
On to `O=C(NO)c1ccccc1` [n=0, reference compound], for which the 50% inhibitory concentration (IC50) in experiment [1] (setting [8]) is > 100 µM.
In the case of `O=C(Cc1ccccc1)NO` [n=1, reference compound], in experiment [1] (setting [8]), the IC50 is > 100 µM.
`O=C(CCCCCCCc1ccccc1)NO` [Compound 2b]: the concentration for half-maximal inhibition (IC50) in experiment [1] (setting [4]) turned out to be 12.2 µM; in experiment [2] it was 26 µM. For the same compound, the inhibition at 100 µM in experiment [3] came to 53%.
On to `CC(C)N(O)C(=O)CCCCCCCc1ccccc1` [BMY30214], for which the values for the half-inhibitory concentration (IC50) in experiment [1] (setting [4]), in experiment [2] and in experiment [3] were 0.16 µM, 4.2 µM and 4.5 µM, respectively.
`CCCCCCOc1ccc(CCCCCCCCC(=O)N(C)O)cc1` [BMY 30241, N-Methyl 9(4-Hexyloxyphenyl)nonanohydroxamic acid]: the “% Inhibition at 100 μm” value in experiment [1] amounted to 95.9%.
As to `O=C(CCCCCCCCc1ccc(Cl)cc1)NO` [BMY 30174, 9(4-chlorophenyl)nonanohydroxamic acid], in experiment [1] (setting [6]), the 50% inhibitory concentration (IC50) was 6.1 µM.
For `O=C(CCCCCCCCCCc1ccccc1)NO` [Compound 2d], the IC50 in experiment [1] (setting [8]) is 11 µM.
Regarding `CC(C)N(O)C(=O)CCCCCCc1ccccc1` [BMY30222], the 50% inhibitory concentration (IC50) is 0.07 µM in experiment [1] (setting [4]), 30.9 µM in experiment [2] and 12.5 µM in experiment [3].
With `CC(C)N(O)C(=O)CCCCCCCCc1ccccc1` [BMY30224], the IC50 was 0.18 µM in experiment [1] (setting [4]), 18.4 µM in experiment [2] and 13.9 µM in experiment [3].
For the compound `O=C(CCCCc1ccccc1)NO` [BMY30083], the inhibition at 100 µM in experiment [1] (setting [7]) was 22%. Besides, in experiment [1] (setting [8]), the concentration for half-maximal inhibition (IC50) is > 100 µM.
Regarding `O=C(CCCCCCCCCc1ccccc1)NO` [Compound 2c], the values for the concentration for half-maximal inhibition (IC50) in experiment [1] (setting [4]) and in experiment [2] were 11.6 µM and 32 µM, respectively. For the same compound, the inhibition at 100 µM in experiment [3] came out at 10%.
For the compound `COc1cccc(CCCCCCCCC(=O)NO)c1` [BMY 30181, 9(3-methoxyphenyl)nonanohydroxamic acid], in experiment [1] (setting [6]), the concentration for half-maximal inhibition (IC50) is 5.4 µM.
For the compound `O=C(CCCCCCCCCCCCc1ccccc1)NO` [n=12, reference compound], the IC50 in experiment [1] (setting [8]) was > 50 µM.
With `CC(C)N(O)C(=O)CCCc1ccccc1` [BMY30227], the IC50 in experiment [1] (setting [4]) was found to be 0.7 µM. In addition, the figures for the inhibition at 100 µM in experiment [2] and in experiment [3] were 7% and 31%, respectively.
Take `CCCCCCOc1ccc(CCCCCCCCC(=O)N(O)C(C)C)cc1` [BMY 30240, N-isopropyl 9(4-hexyloxyphenyl)nonanohydroxamic acid]: in experiment [1], the “% Inhibition at 100 μm” value turned out to be 45.8%.
